In US8765773B2, “Substituted hydroxamic acids and uses thereof” (Millennium Pharmaceuticals, Inc., priority 2010, dated 2014):

Target: T1, purified human HDAC6 (Homo sapiens, UniProt Q9UBN7)
T1 construct: purchased BPS Bioscience 5006
T1 sequence (Q9UBN7 1-1215): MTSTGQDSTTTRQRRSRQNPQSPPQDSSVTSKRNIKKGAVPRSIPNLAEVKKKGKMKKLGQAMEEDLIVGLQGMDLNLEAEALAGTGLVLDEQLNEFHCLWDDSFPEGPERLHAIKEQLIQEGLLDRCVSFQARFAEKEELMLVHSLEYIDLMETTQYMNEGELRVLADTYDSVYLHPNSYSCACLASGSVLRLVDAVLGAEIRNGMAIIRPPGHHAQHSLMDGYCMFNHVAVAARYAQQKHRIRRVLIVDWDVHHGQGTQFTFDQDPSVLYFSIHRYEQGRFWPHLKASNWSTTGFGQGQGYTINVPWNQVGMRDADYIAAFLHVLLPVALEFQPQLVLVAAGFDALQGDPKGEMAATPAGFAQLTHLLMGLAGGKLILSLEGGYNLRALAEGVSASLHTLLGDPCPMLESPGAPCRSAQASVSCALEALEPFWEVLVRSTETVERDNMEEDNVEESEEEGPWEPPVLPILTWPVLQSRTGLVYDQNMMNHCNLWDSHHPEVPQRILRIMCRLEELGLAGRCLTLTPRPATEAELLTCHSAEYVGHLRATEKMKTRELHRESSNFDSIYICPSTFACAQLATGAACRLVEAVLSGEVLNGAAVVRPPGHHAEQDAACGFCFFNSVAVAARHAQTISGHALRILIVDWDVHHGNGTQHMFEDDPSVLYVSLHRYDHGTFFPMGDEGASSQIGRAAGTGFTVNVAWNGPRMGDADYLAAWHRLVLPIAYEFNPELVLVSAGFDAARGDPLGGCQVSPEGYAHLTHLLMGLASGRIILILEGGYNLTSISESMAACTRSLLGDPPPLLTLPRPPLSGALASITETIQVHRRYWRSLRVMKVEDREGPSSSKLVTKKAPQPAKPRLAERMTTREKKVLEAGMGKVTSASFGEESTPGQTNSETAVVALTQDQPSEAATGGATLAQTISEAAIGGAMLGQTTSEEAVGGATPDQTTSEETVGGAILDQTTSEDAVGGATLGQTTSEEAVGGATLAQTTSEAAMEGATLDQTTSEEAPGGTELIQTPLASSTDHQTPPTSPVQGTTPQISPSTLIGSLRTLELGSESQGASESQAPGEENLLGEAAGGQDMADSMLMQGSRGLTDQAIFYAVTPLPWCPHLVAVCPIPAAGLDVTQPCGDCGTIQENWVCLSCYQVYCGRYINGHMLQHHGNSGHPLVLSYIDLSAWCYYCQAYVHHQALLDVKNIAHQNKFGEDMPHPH
Experiment: HDAC6 Enzyme Assay
Format: biochemical
Details: compound concentration 0.37 μM, read-out: Percent Inhibition
Outline: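 Purified human HDAC6 incubated 1 h at 30° C with Ac-Arg-Gly-Lys(Ac)-AMC peptide plus compound or DMSO; stopped with trichostatin A. Deacetylated product trypsin-digested, released AMC read by fluorescence (Ex 340/Em 460 nm). Percent inhibition at one concentration or IC50 from curves relative to DMSO controls.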

| SMILES | inhibition at 0.37 µM [%] |
| --- | --- |
| CS(=O)(=O)c1cccc(-c2cccc(CCn3cnc4ccc(C(=O)NO)cc4c3=O)c2)c1 [Compound I-341, N-hydroxy-3-{2-[3′-(methylsulfonyl)biphenyl-3-yl]ethyl}-4-oxo-3,4-dihydroquinazoline-6-carboxamide] | 94.5 |
| O=C(NO)c1ccc2ccn(-c3ccnc(NC(=O)C4CC4)c3)c(=O)c2c1 [Compound I-397, 2-{2-[(cyclopropylcarbonyl)amino]pyridin-4-yl}-N-hydroxy-1-oxo-1,2-dihydroisoquinoline-7-carboxamide] | 96.3 |
| Cn1c(-c2nc3cc(C(=O)NO)ccc3c(=O)[nH]2)cc2ccccc21 [Compound I-415, N-hydroxy-2-(1-methyl-1H-indol-2-yl)-4-oxo-3,4-dihydroquinazoline-7-carboxamide] | 79.9 |
| CCC(C)c1nc2cc(C(=O)NO)ccc2c(=O)n1Cc1ccc(C(F)(F)F)cc1 (stereo not shown) [Compound I-100, 2-sec-butyl-N-hydroxy-4-oxo-3-[4-(trifluoromethyl)benzyl]-3,4-dihydroquinazoline-7-carboxamide] | 90.6 |
| COc1ccncc1-c1nc2cc(C(=O)NO)ccc2c(=O)[nH]1 [Compound I-410, N-hydroxy-2-(4-methoxypyridin-3-yl)-4-oxo-3,4-dihydroquinazoline-7-carboxamide] | 68.1 |
| CC(C)Cc1nc2cc(C(=O)NO)ccc2c(=O)[nH]1 [Compound I-402, N-hydroxy-2-isobutyl-4-oxo-3,4-dihydroquinazoline-7-carboxamide] | 91.7 |
| O=C(NO)c1ccc2ncn(CCc3cccc(-c4cc(Cl)cc(Cl)c4)c3)c(=O)c2c1 [Compound I-345, 3-[2-(3′,5′-dichlorobiphenyl-3-yl)ethyl]-N-hydroxy-4-oxo-3,4-dihydroquinazoline-6-carboxamide] | 81.9 |
| O=C(NO)c1ccc2ccn(-c3ccccc3)c(=O)c2c1 [Compound I-154, N-hydroxy-1-oxo-2-phenyl-1,2-dihydroisoquinoline-7-carboxamide] | 93.9 |

Same assay, conditions: compound concentration 0.412 μM, read-out: Percent Inhibition

| SMILES | inhibition at 0.412 µM [%] |
| --- | --- |
| COc1ccccc1OCCn1ccc2ccc(C(=O)NO)cc2c1=O [Compound I-48, N-hydroxy-2-[2-(2-methoxyphenoxy)ethyl]-1-oxo-1,2-dihydroisoquinoline-7-carboxamide] | 97 |
| O=C(NO)c1ccc2ccn(CCCOc3ccccc3C(F)(F)F)c(=O)c2c1 [Compound I-52, N-hydroxy-1-oxo-2-{3-[2-(trifluoromethyl)phenoxy]propyl}-1,2-dihydroisoquinoline-7-carboxamide] | 90 |
| Cc1ccc(OCCCn2ccc3ccc(C(=O)NO)cc3c2=O)cc1 [Compound I-197, N-hydroxy-2-[3-(4-methylphenoxy)propyl]-1-oxo-1,2-dihydroisoquinoline-7-carboxamide] | 96.5 |
| O=C(NO)c1ccc2ccn(Cc3c(F)cccc3Cl)c(=O)c2c1 [Compound I-187, 2-(2-chloro-6-fluorobenzyl)-N-hydroxy-1-oxo-1,2-dihydroisoquinoline-7-carboxamide] | 95.1 |
| O=C(NO)c1ccc2c(=O)n(CCOc3ccccc3)cnc2c1 [Compound I-22, N-hydroxy-4-oxo-3-(2-phenoxyethyl)-3,4-dihydroquinazoline-7-carboxamide] | 96.4 |
| O=C(NO)c1ccc2c(=O)[nH]c(=O)[nH]c2c1 [Compound I-155, N-hydroxy-2,4-dioxo-1,2,3,4-tetrahydroquinazoline-7-carboxamide] | 19.6 |
| O=C(NO)c1ccc2ccn(CCCc3ccccc3)c(=O)c2c1 [Compound I-11, N-hydroxy-1-oxo-2-(3-phenylpropyl)-1,2-dihydroisoquinoline-7-carboxamide] | 97 |
| O=C(NO)c1ccc2ccn(CCCOc3ccc4c(c3)OCO4)c(=O)c2c1 [Compound I-191, 2-[3-(1,3-benzodioxol-5-yloxy)propyl]-N-hydroxy-1-oxo-1,2-dihydroisoquinoline-7-carboxamide] | 95.5 |
